Assay results reported in patent US20230242669A1, “ANTIBODY THAT BINDS ERBB-2 AND ERBB-3” (Merus N.V., priority 2014, published 2023).

System: HER2 overexpressing cells (SK-BR-3, BT-474, N87)
Assay: Drug combinations with PB4188 in vitro (checkerboard, isobolograms)
Type: cell-based, human
Conditions: HER2 amplified cells, HRG
Method: Moreover, combination with chemotherapeutic drugs and cyclin inhibitors were tested. Combinations were tested on HER2 overexpressing cells growing in the presence of HRG in […]® (SK-BR-3 and BT-474) or in the presence of HRG stress concentrations (N87 and SK-BR-3 as described in proliferation assays). The inhibitory effect of drug combinations was tested by imaging or by measuring proliferation using Alamar Blue as described herein before. […] The extent of growth inhibition obtained with each combination was calculated. […] The inhibition values of the combination experiments were used by CHALICE™ Analyzer software to generate the isobolograms.

Row | SMILES | Drug combination with PB4188 (isobologram analysis)
1 | Cc1nc(NC(=O)N2CCC[C@H]2C(N)=O)sc1-c1ccnc(C(C)(C)C(F)(F)F)c1 [BYL719] | synergistic
2 | NC1(c2ccc(-c3nc4ccn5c(=O)[nH]nc5c4cc3-c3ccccc3)cc2)CCC1 [MK-2206] | synergistic
3 | CO[C@H]1C[C@@H]2CC[C@@H](C)[C@@](O)(O2)C(=O)C(=O)N2CCCC[C@H]2C(=O)O[C@H]([C@H](C)C[C@@H]2CC[C@@H](OCCO)[C@H](OC)C2)CC(=O)[C@H](C)/C=C(\C)[C@@H](O)[C@@H](OC)C(=O)[C@H](C)C[C@H](C)/C=C/C=C/C=C/1C [everolimus] | synergistic
4 | CS(=O)(=O)CCNCc1ccc(-c2ccc3ncnc(Nc4ccc(OCc5cccc(F)c5)c(Cl)c4)c3c2)o1 [lapatinib] | synergistic
5 | CCOc1cc2ncc(C#N)c(Nc3ccc(OCc4ccccn4)c(Cl)c3)c2cc1NC(=O)/C=C/CN(C)C [neratinib] | synergistic
6 | CC(=O)O[C@H]1C(=O)[C@@]2(C)[C@H]([C@H](OC(=O)c3ccccc3)[C@]3(O)C[C@H](OC(=O)[C@H](O)[C@@H](NC(=O)c4ccccc4)c4ccccc4)C(C)=C1C3(C)C)[C@]1(OC(C)=O)CO[C@@H]1C[C@@H]2O [paclitaxel] | synergistic
7 | O=C(CCCCCCC(=O)Nc1ccccc1)NO [vorinostat] | synergistic
